The values that follow come from patent US12404241B2 (Celgene Corporation, priority 2018, dated 2025).

Where a name gives a salt, the structure may show the parent alone.

This experiment has as its target T1, AR (Homo sapiens, UniProt P10275).
T1 construct: endogenous in cells; host or cells: VCaP cells
T1 sequence (P10275 1-920): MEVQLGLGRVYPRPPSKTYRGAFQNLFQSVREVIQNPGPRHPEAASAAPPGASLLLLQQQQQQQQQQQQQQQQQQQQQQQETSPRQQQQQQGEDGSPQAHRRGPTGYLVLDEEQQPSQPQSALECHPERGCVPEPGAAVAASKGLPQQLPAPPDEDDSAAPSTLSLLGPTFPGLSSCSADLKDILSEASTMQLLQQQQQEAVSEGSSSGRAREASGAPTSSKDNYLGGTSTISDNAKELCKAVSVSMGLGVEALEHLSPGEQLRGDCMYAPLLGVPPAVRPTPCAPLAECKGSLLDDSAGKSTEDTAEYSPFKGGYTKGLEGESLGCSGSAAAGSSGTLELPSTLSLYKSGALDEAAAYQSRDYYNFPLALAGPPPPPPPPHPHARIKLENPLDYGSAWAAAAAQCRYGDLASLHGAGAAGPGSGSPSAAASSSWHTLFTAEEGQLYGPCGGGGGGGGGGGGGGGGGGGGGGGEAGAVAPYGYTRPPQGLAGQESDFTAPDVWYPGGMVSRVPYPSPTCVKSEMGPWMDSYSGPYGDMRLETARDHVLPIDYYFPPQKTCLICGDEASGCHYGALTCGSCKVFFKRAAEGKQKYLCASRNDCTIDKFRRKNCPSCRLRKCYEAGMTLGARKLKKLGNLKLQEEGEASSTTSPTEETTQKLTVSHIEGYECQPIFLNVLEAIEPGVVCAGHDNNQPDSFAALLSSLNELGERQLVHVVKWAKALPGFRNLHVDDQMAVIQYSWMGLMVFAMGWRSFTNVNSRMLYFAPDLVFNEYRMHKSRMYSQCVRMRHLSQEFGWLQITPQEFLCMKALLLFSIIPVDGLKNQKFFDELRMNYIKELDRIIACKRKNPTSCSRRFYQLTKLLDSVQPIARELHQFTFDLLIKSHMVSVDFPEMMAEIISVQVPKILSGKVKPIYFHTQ
Briefly: VCAP AR Degradation Assay. It is filed as cell-based. As to conditions: for Y (AR degradation efficiency, % of DMSO control): class symbols *; for DC50: class symbols A-C, read-out: DC50. The gist of the method: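 Compounds were plated as 10-point 1:3 series reaching 5 μM final, then VCaP cells were seeded onto them and incubated 24 h at 37 °C. Cells were lysed cold, and total AR was measured by sandwich ELISA relative to 0.1% DMSO wells.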

What is called DC50 is the concentration giving 50% degradation. Take `CCc1cc(N2C(=S)N(c3ccc(C#N)c(C(F)(F)F)c3)C(=O)C2(C)C)ccc1OCCN1C[C@@H](C)N(CC(=O)Nc2cccc(N[C@@H]3CCC(=O)NC3=O)c2)[C@@H](C)C1` [Example 286, 2-((2R,6S)-4-(2-(4-(3-(4-cyano-3-(trifluoromethyl)phenyl)-5,5-dimethyl-4-oxo-2-thioxoimidazolidin-1-yl)-2-ethylphenoxy)ethyl)-2,6-dimethylpiperazin-1-yl)-N-(3-((R)-2,6-dioxopiperidin-3-ylamino)phenyl)acetamide]: the “Y (AR degradation efficiency, % of DMSO control)” value is “* (0<Y<=25%)” and the DC50 is less than 0.1 µM.
For `CCc1cc(N2C(=S)N(c3ccc(C#N)c(C(F)(F)F)c3)C(=O)C2(C)C)c(C)cc1OCCN1C[C@@H](C)N(CC(=O)Nc2cccc(NC3CCC(=O)NC3=O)c2)[C@@H](C)C1` (stereo partly drawn) [Example 254, 2-((2S,6R)-4-(2-(4-(3-(4-cyano-3-(trifluoromethyl)phenyl)-5,5-dimethyl-4-oxo-2-thioxoimidazolidin-1-yl)-2-ethyl-5-methylphenoxy)ethyl)-2,6-dimethylpiperazin-1-yl)-N-(3-(2,6-dioxopiperidin-3-ylamino)phenyl)acetamide] the same measures were “* (0<Y<=25%)” and less than 0.1 µM.
For `C[C@@H]1CN(CCOc2ccc(N3C(=S)N(c4ccc(C#N)c(C(F)(F)F)c4)C(=O)C3(C)C)cc2C2CCC2)C[C@H](C)N1CC(=O)Nc1cccc(NC2CCC(=O)NC2=O)c1` (stereo partly drawn) [Example 259, 2-((2R,6S)-4-(2-(4-(3-(4-cyano-3-(trifluoromethyl)phenyl)-5,5-dimethyl-4-oxo-2-thioxoimidazolidin-1-yl)-2-cyclobutylphenoxy)ethyl)-2,6-dimethylpiperazin-1-yl)-N-(3-(2,6-dioxopiperidin-3-ylamino)phenyl)acetamide] the same measures were “* (0<Y<=25%)” and less than 0.1 µM.
Regarding `C[C@@H]1CN(CCOc2ccc(N3C(=S)N(c4ccc(C#N)c(Cl)c4)C(=O)C3(C)C)cc2C(C)(F)F)C[C@H](C)N1CC(=O)Nc1cccc(NC2CCC(=O)NC2=O)c1` (stereo partly drawn) [Example 269, 2-((2S,6R)-4-(2-(4-(3-(3-chloro-4-cyanophenyl)-5,5-dimethyl-4-oxo-2-thioxoimidazolidin-1-yl)-2-(1,1-difluoroethyl)phenoxy)ethyl)-2,6-dimethylpiperazin-1-yl)-N-(3-(2,6-dioxopiperidin-3-ylamino)phenyl)acetamide], the “Y (AR degradation efficiency, % of DMSO control)” value is given as “* (0<Y<=25%)” and the DC50 is less than 0.1 µM.
In the same order, the values of `C[C@@H]1CN(CCOc2ccc(N3C(=S)N(c4cnc(C#N)c(C(F)(F)F)c4)C(=O)C34CCC4)cc2CCF)CCN1CC(=O)Nc1cc(Cl)cc(NC2CCC(=O)NC2=O)c1` (stereo partly drawn) [Example 142, N-(3-chloro-5-(2,6-dioxopiperidin-3-ylamino)phenyl)-2-((R)-4-(2-(4-(7-(6-cyano-5-(trifluoromethyl)pyridin-3-yl)-8-oxo-6-thioxo-5,7-diazaspiro[3.4]octan-5-yl)-2-(2-fluoroethyl)phenoxy)ethyl)-2-methylpiperazin-1-yl)acetamide] are “* (0<Y<=25%)” and less than 0.1 µM.
As to `CCc1cc(N2C(=S)N(c3ccc(C#N)c(C(F)(F)F)c3)C(=O)C2(C)C)ccc1OCCN1C[C@@H](C)N(CC(=O)Nc2cccc(NC3CCC(=O)NC3=O)c2)C[C@H]1C` (stereo partly drawn) [Example 127, 2-((2R,5R)-4-(2-(4-(3-(4-cyano-3-(trifluoromethyl)phenyl)-5,5-dimethyl-4-oxo-2-thioxoimidazolidin-1-yl)-2-ethylphenoxy)ethyl)-2,5-dimethylpiperazin-1-yl)-N-(3-(2,6-dioxopiperidin-3-ylamino)phenyl)acetamide], the “Y (AR degradation efficiency, % of DMSO control)” value was “* (0<Y<=25%)” and the DC50 was less than 0.1 µM.
On to `CC1(C)C(=O)N(c2cnc(C#N)c(C(F)(F)F)c2)C(=S)N1c1ccc(OCCN2CCN(CC(=O)Nc3cc(F)cc(NC4CCC(=O)NC4=O)c3)CC2)c(CC(F)F)c1` (stereo not drawn) [Example 68, 2-(4-(2-(4-(3-(6-cyano-5-(trifluoromethyl)pyridin-3-yl)-5,5-dimethyl-4-oxo-2-thioxoimidazolidin-1-yl)-2-(2,2-difluoroethyl)phenoxy)ethyl)piperazin-1-yl)-N-(3-(2,6-dioxopiperidin-3-ylamino)-5-fluorophenyl)acetamide], for which the “Y (AR degradation efficiency, % of DMSO control)” value is “* (0<Y<=25%)” and the DC50 was less than 0.1 µM.
For `CCc1cc(N2C(=S)N(c3cnc(C#N)c(C(F)(F)F)c3)C(=O)C2(C)C)ccc1OCCN1CCN(CC(=O)Nc2cc(NC3CCC(=O)NC3=O)ccc2F)[C@H](C)C1` (stereo partly drawn) [Example 76, 2-((R)-4-(2-(4-(3-(6-cyano-5-(trifluoromethyl)pyridin-3-yl)-5,5-dimethyl-4-oxo-2-thioxoimidazolidin-1-yl)-2-ethylphenoxy)ethyl)-2-methylpiperazin-1-yl)-N-(5-(2,6-dioxopiperidin-3-ylamino)-2-fluorophenyl)acetamide] the same measures were “* (0<Y<=25%)” and less than 0.1 µM.
Take `Cc1cc(OCCN2CCN(CC(=O)Nc3cccc(NC4CCC(=O)NC4=O)c3)CC2)c(F)cc1N1C(=S)N(c2ccc(C#N)c(C(F)(F)F)c2)C(=O)C1(C)C` (stereo not drawn) [Example 13, hydrochloride]: the “Y (AR degradation efficiency, % of DMSO control)” value is given as “*** (35%<Y<50%)” and the DC50 is less than 0.1 µM.
Turning to `CC(C)c1cc(N2C(=S)N(c3ccc(C#N)c(Cl)c3)C(=O)C2(C)C)ccc1OCCN1C[C@@H](C)N(CC(=O)Nc2cc(NC3CCC(=O)NC3=O)ccc2F)[C@@H](C)C1` (stereo partly drawn) [Example 222, 2-((2S,6R)-4-(2-(4-(3-(3-chloro-4-cyanophenyl)-5,5-dimethyl-4-oxo-2-thioxoimidazolidin-1-yl)-2-isopropylphenoxy)ethyl)-2,6-dimethylpiperazin-1-yl)-N-(5-(2,6-dioxopiperidin-3-ylamino)-2-fluorophenyl)acetamide], the “Y (AR degradation efficiency, % of DMSO control)” value is listed as “* (0<Y<=25%)” and the DC50 lay in the range of 0.1 to 0.5 µM.
In the same order, the values of `CC(C)c1cc(N2C(=S)N(c3cnc(C#N)c(C(F)(F)F)c3)C(=O)C2(C)C)ccc1OCCN1CCN(CC(=O)Nc2cc(Cl)cc(NC3CCC(=O)NC3=O)c2)CC1` (stereo not drawn) [Example 93, N-(3-chloro-5-(2,6-dioxopiperidin-3-ylamino)phenyl)-2-(4-(2-(4-(3-(6-cyano-5-(trifluoromethyl)pyridin-3-yl)-5,5-dimethyl-4-oxo-2-thioxoimidazolidin-1-yl)-2-isopropylphenoxy)ethyl)piperazin-1-yl)acetamide] are “* (0<Y<=25%)” and less than 0.1 µM.
For `CCc1cc(N2C(=S)N(c3ccc(C#N)c(C(F)(F)F)c3)C(=O)C2(C)C)ccc1OCCN1CCN(CC(=O)Nc2cccc(NC3CCC(=O)NC3=O)c2)[C@@H](CO)C1` (stereo partly drawn) [Example 51] the same measures were “*** (35%<Y<50%)” and 0.1 to 0.5 µM.
For `CC1(C)C(=O)N(c2ccc(C#N)c(C(F)(F)F)c2)C(=S)N1c1ccc(OCCN2CCN(CC(=O)Nc3cc(Cl)cc(NC4CCC(=O)NC4=O)c3)CC2)c(CC(F)F)c1` (stereo not drawn) [Example 159, N-(3-chloro-5-(2,6-dioxopiperidin-3-ylamino)phenyl)-2-(4-(2-(4-(3-(4-cyano-3-(trifluoromethyl)phenyl)-5,5-dimethyl-4-oxo-2-thioxoimidazolidin-1-yl)-2-(2,2-difluoroethyl)phenoxy)ethyl)piperazin-1-yl)acetamide] the same measures were “* (0<Y<=25%)” and less than 0.1 µM.
For `C[C@@H]1CN(CC(=O)Nc2cc(C#N)cc(NC3CCC(=O)NC3=O)c2)[C@H](C)CN1CCOc1ccc(N2C(=S)N(c3cnc(C#N)c(C(F)(F)F)c3)C(=O)C2(C)C)cc1C(C)(F)F` (stereo partly drawn) [Example 243, N-(3-cyano-5-(2,6-dioxopiperidin-3-ylamino)phenyl)-2-((2R,5R)-4-(2-(4-(3-(6-cyano-5-(trifluoromethyl)pyridin-3-yl)-5,5-dimethyl-4-oxo-2-thioxoimidazolidin-1-yl)-2-(1,1-difluoroethyl)phenoxy)ethyl)-2,5-dimethylpiperazin-1-yl)acetamide], the “Y (AR degradation efficiency, % of DMSO control)” value was “* (0<Y<=25%)” and the DC50 was less than 0.1 µM.
Consider `CC(C)c1cc(N2C(=S)N(c3ccc(C#N)c(C(F)(F)F)c3)C(=O)C2(C)C)cnc1OCCN1C[C@@H](C)N(CC(=O)Nc2cc(C#N)cc(NC3CCC(=O)NC3=O)c2)C[C@H]1C` (stereo partly drawn) [Example 232, 2-((2R,5R)-4-(2-(5-(3-(4-cyano-3-(trifluoromethyl)phenyl)-5,5-dimethyl-4-oxo-2-thioxoimidazolidin-1-yl)-3-isopropylpyridin-2-yloxy)ethyl)-2,5-dimethylpiperazin-1-yl)-N-(3-cyano-5-(2,6-dioxopiperidin-3-ylamino)phenyl)acetamide], for which the “Y (AR degradation efficiency, % of DMSO control)” value is reported as “* (0<Y<=25%)” and the 50% degradation concentration (DC50) lay within 0.1 to 0.5 µM.
